According to ChEMBL document CHEMBL1201862, “PubChem BioAssay data set” (2004):
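Test compounds were applied to cells in 96-well plates for 48 hours at 5 doses. Here, GI50 denotes the concentration required for 50% inhibition of growth.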 Calls of active or inactive are those of the source. Cut-off read from the data, not from the text of the source: active = GI50 up to about 1.1 µM and inactive = higher.

Key:
Test in all cases: inhibition of tumour cell growth, NCI panel, 48 h
[1] = system: NCI-H23
[2] = system: CCRF-CEM
[3] = system: EKVX
[4] = system: PC-3
[5] = system: M14
[6] = system: UO-31
[7] = system: HL-60
[8] = system: HT-29
[9] = system: MDA-MB-231
[10] = system: COLO 205
[11] = system: OVCAR-8
[12] = system: SK-MEL-28
[13] = system: SF-295
[14] = system: RXF 393
[15] = system: OVCAR-3
[16] = system: SK-MEL-2
[17] = system: T47D
[18] = system: HCT-15
[19] = system: NCI-H226
[20] = system: UACC-62

Row | Compound | GI50 [1] | GI50 [2] | GI50 [3] | GI50 [4] | GI50 [5] | GI50 [6] | GI50 [7] | GI50 [8] | GI50 [9] | GI50 [10] | GI50 [11] | GI50 [12] | GI50 [13] | GI50 [14] | GI50 [15] | GI50 [16] | GI50 [17] | GI50 [18] | GI50 [19] | GI50 [20]
1 | COC(OC)(c1ccccc1)C(I)I | 19.2 µM (inactive) | 2.31 µM (inactive) | 12 µM (inactive) | 14.2 µM (inactive) | 5.37 µM (inactive) | 16.3 µM (inactive) | 2 µM (inactive) | 15 µM (inactive) | 18.9 µM (inactive) | 8.69 µM (inactive) | 17.9 µM (inactive) | 16.1 µM (inactive) | 22.8 µM (inactive) | 2.32 µM (inactive) | 15.3 µM (inactive) | 13.8 µM (inactive) | 19.2 µM (inactive) | 6.61 µM | 20.8 µM (inactive) | 13.4 µM (inactive)
2 | COc1cc(-c2[o+]c3cc(O)cc(O)c3cc2O)cc(O)c1O | > 100 µM (inactive) | 25.9 µM (inactive) | 92.9 µM (inactive) | > 100 µM (inactive) | > 100 µM (inactive) | > 100 µM (inactive) | > 100 µM (inactive) | > 100 µM (inactive) | > 100 µM (inactive) | > 100 µM (inactive) | > 100 µM (inactive) | > 100 µM (inactive) | > 100 µM (inactive) | > 100 µM (inactive) | > 100 µM (inactive) | > 100 µM (inactive) | > 100 µM (inactive) | > 100 µM | > 100 µM (inactive) | > 100 µM (inactive)
3 | O=P(c1ccccc1)(c1ccccc1)N1O[C@@H](c2ccccc2)C=C[C@H]1c1ccccc1 | 10.8 µM (inactive) | 10.5 µM (inactive) | 10.4 µM (inactive) | 2.96 µM (inactive) | 10.9 µM (inactive) | 5.13 µM (inactive) | 5.24 µM (inactive) | 9.75 µM (inactive) | 8.24 µM (inactive) | 12.3 µM (inactive) | 12.8 µM (inactive) | 17.3 µM (inactive) | 11.6 µM (inactive) | 10 µM (inactive) | 11.6 µM (inactive) | 12 µM (inactive) | 4.61 µM (inactive) | 10 µM | 11.9 µM (inactive) | 6.17 µM (inactive)
4 | CCCCC(=O)OC[n+]1ccc(-c2c(COC(=O)NC(C)C)c(COC(=O)NC(C)C)c3n2CCC3)cc1 | 53.6 µM (inactive) | 33.7 µM (inactive) | > 100 µM (inactive) | > 84.5 µM (inactive) | > 77.4 µM (inactive) | > 100 µM (inactive) | 25.5 µM (inactive) | > 76 µM (inactive) | > 67.6 µM (inactive) | > 80.9 µM (inactive) | > 100 µM (inactive) | > 100 µM (inactive) | > 76.2 µM (inactive) | 64 µM (inactive) | > 100 µM (inactive) | > 100 µM (inactive) | > 100 µM (inactive) | > 100 µM | > 100 µM (inactive) | 30.9 µM (inactive)
5 | CCN(CC)CCCn1c(=O)c2cccnc2n2c3c(=O)n(C)c(=O)n(C)c3nc12 | > 100 µM (inactive) | > 100 µM (inactive) | > 100 µM (inactive) | > 100 µM (inactive) | > 100 µM (inactive) | > 100 µM (inactive) | > 100 µM (inactive) | > 100 µM (inactive) | > 100 µM (inactive) | > 100 µM (inactive) | > 100 µM (inactive) | > 100 µM (inactive) | > 100 µM (inactive) | > 100 µM (inactive) | > 100 µM (inactive) | > 100 µM (inactive) | > 100 µM (inactive) | > 100 µM | > 100 µM (inactive) | > 100 µM (inactive)
6 | CC(=O)NC1C(O)C(O)C(CO)OC1n1nc(SCc2ccccc2)c(=O)[nH]c1=O (stereo not given) | > 100 µM (inactive) | > 100 µM (inactive) | > 100 µM (inactive) | > 100 µM (inactive) | > 100 µM (inactive) | > 100 µM (inactive) | > 100 µM (inactive) | > 100 µM (inactive) | > 100 µM (inactive) | > 100 µM (inactive) | > 100 µM (inactive) | > 100 µM (inactive) | > 100 µM (inactive) | > 100 µM (inactive) | > 100 µM (inactive) | > 100 µM (inactive) | > 100 µM (inactive) | > 100 µM | > 100 µM (inactive) | > 100 µM (inactive)
7 | CC(=O)n1[nH]c(=O)n(-c2ccc(Cl)cc2)c1=O | > 100 µM (inactive) | > 100 µM (inactive) | > 100 µM (inactive) | > 100 µM (inactive) | > 100 µM (inactive) | > 100 µM (inactive) | > 100 µM (inactive) | > 100 µM (inactive) | > 100 µM (inactive) | > 100 µM (inactive) | > 100 µM (inactive) | > 100 µM (inactive) | > 100 µM (inactive) | > 100 µM (inactive) | > 100 µM (inactive) | > 100 µM (inactive) | > 100 µM (inactive) | > 100 µM | > 100 µM (inactive) | > 100 µM (inactive)
